Source: article PMC8497620, “Structure and inhibition of Cryptococcus neoformans sterylglucosidase to develop antifungal agents” (Nature Communications, 2021)
“And” between values parts separate entries of the source, which are not always exact repeats. Identical values can stand only once. “Also recorded” adds a separate entry of the source.

Assays:
[1] = test system: human lung epithelial cancer cell line A549; details: A549 cells, 24 h, MTT
Description: The cells were maintained in Dulbecco’s modified eagle medium containing 10% fetal bovine serum and 1% penicillin–streptomycin. At passage 11, 10^5 cells were transferred into each well of 96-well plates and cultured for 18–24 h for the cells to adhere to the well surface. After, the medium was removed and a fresh medium containing the selected compounds at a concentration range of 1–512 μM were added to the wells. Controls with equivalent serial concentrations of DMSO were also evaluated and compared with a control without DMSO. The plate was incubated at 37 °C with 5% CO2. After 24 h, the supernatant was removed and 50 μL of 5 mg/mL 3-(4,5-dimethylthiazol-2-yl)-2,5-diphenyltetrazoliumbromide (MTT) solution in phosphate-buffered saline (PBS) was added to each well. The plates were incubated for an additional 4 h and the formazan crystals formed inside the cell was dissolved by adding 50 μL DMSO.

C. neoformans Sgl1 [2] = target: T1, C. neoformans Sgl1 (Cryptococcus neoformans var. grubii, UniProt J9W473); assay: Sgl1 inhibition with res-glp substrate (HTS, single-compound dose-response); assay type: biochemical; details: res-glp as substrate (100 µM), primary screen; read-out: IC50 against Sgl1
Description: (§1) Resorufin-3β-D-glucopyranoside (res-glp, Sigma-Aldrich) enzyme kinetic assays were performed according to methods described by Urban et al.[16] with modifications. Reaction buffer contained 50 mM citric acid, 176 mM K2HPO4, pH 6, 0.01% Tween-20, and 10 mM sodium taurocholate. The reactions were carried out in black 96-well plates using 20 ng of enzyme with 100 μM res-glp substrate. In all, 10 μL/well of res-glp substrate was added to each well and the reaction was initiated by adding 20 μL enzyme (20 ng). After incubation at 37 °C for 30–40 min, the fluorescence was read at an excitation of 570 (±10) nm and an emission of 610 (±10) nm on a VersaMax™ Microplate Reader from Molecular Devices. A standard curve was prepared with serial dilutions of the free fluorophore, resorufin, in the same volume of assay buffer.
A ChemBridge DIVERSet-CL library (San Diego, CA) containing 50,000 compounds was screened to identify small molecules that inhibit C. neoformans Sgl1. The library was prepared in a 96-well plate format containing a cocktail of 10 compounds per well at 1 mM each in 100% DMSO. The cocktail plates were first diluted to 100 μM each (1:10 dilution in Dulbecco’s phosphate-buffered saline, DPBS) resulting in 10% DMSO. In order to screen the compound cocktails at […] in 1% DMSO in a final reaction volume of 30 μL an aliquot of 3 μL was added to 17 μL of buffer containing 20 ng of enzyme and the reaction was started adding 10 μL of 100 μM res-glp. A negative control without enzyme and positive controls with and without DMSO were prepared. The plates were incubated at 37 °C for 40 min.
The Z′-factor was used for the assessment of the efficiency of the HTS assay for each individual plate. Values greater than 0.5 has been considered as an indicator of an excellent screening assay quality.

C. neoformans Sgl1 [3] = target: T1, C. neoformans Sgl1; assay: Enzymatic evaluation of C. neoformans Sgl1 against the fungal glucosylceramide (LC-MS); assay type: biochemical; details: 10 μg substrate, 10 or 50 μg Sgl1, pH 5.5, 37 °C, 4 h
Description: (§2) To verify the enzymatic activity of C. neoformans Sgl1 against the fungal long-chain glucosylceramide (GlcCer, OH-Δ8,9-methyl-glucosylceramide), kindly provided by Khojin (Japan). The reactions used 10 μg of substrate and 10 or 50 μg of C. neoformans Sgl1 or cerezyme (Genzyme Corporation, Cambridge, MA, USA) in 100 μL acetate buffer pH 5.5 incubated at 37 °C for 4 h[11]. The reaction was terminated by adding 300 μL of chloroform/methanol (1:1 ratio) and the lower phase was collected and dried. 9-Methyl-ceramide production was monitored by liquid chromatography-mass spectrometry (LC-MS).

C. neoformans H99 = assay type: in vivo, Cryptococcus neoformans; details: Hit 1 intranasally, fluconazole intraperitoneally
Description: For animal studies, 4-week-old CBA/J (Envigo) female mice were used. Mouse experiments were performed in full compliance with a protocol approved by Stony Brook University (IACUC number 341588) and in compliance with the United States Animal Welfare Act (Public Law 98–198). The experiments were carried out in facilities accredited by the Association for Assessment and Accreditation of Laboratory Animal Care. Mice were divided into sets of 12 mice for each treatment or control group (4 animals per cage) kept in an animal room (temperature, 22–24 °C; relative humidity, 35–45%) with artificial 12–12 h dark/light cycle. For the experiment with intraperitoneal (i.p.) treatment, mice were infected intranasally with 10 µL of a suspension containing 1 × 10^6 C. neoformans H99 cells and subsequently treated through i.p. injection with 10 mg/kg/day of hit 1 in a final volume of 100 µL of vehicle containing 10% PEG 200 in PBS. The untreated animals received 100 µL of vehicle. For the experiment with intranasal (i.n.) treatment, mice were infected with 1 × 10^5 C. neoformans H99 cells and received i.n. treatment with hit 1 in a final volume of 10 µL. Another group received treatment with 10 mg/kg/day of fluconazole i.p. and a third group received the combined treatment of hit1 by i.n. and fluconazole by i.p. Animals receiving only vehicle i.n. were used as a control group. In both experiments, three mice of each group were euthanized at day 3, 6, 9, and 14 post infection for CFU recovery from lungs and CFU recovery from brain on day 14.

C. neoformans Sgl1 [4] = assay: Resorufin-3β-D-glucopyranoside enzyme kinetic assay and HTS assay parameters; assay type: biochemical, Cryptococcus neoformans; details: for Picomol of resorufin produced: time 20 min, 8 replicates
Description: as §1, with “buffer. All reactions were linear with respect to time and protein concentration and the pH, temperature, and dimethyl sulfoxide (DMSO) optimal tolerance was verified.” for “buffer.”
Supplementary Figure 6. High-throughput screening assay parameters. a. Resorufin 3β-D-glucopyranoside (res-glp) hydrolysis by Sgl1 releases the fluorescent product resorufin and glucose. b. Detection linearity of the system. c. Temperature evaluation of Sgl1 activity (n=6). d.
Reaction dependence on pH (n=4). e. DMSO tolerance (n=6). f. Enzyme concentration linearity (n=4). The reaction is linear up to 0.4 pmol of Sgl1 in presence of the substrate res-glp (100 µM). Data presented as mean values +/- SD of 2-3 independent experiments performed in duplicate (c-f). g.Time linearity until 50 min (n=4). h. Eight substrate concentrations tested with 0.2 pmol of Sgl1 until 20 min. i. Kinetic curve of Sgl1 (n=4). Error bars represent standard deviation of four independent experiments performed in technical duplicates. j. Kinetic parameters of Sgl1 reaction with res-glp.
(1 picture or pasted object on this page, not shown here)

[5] = Hydrolysis of fungal long-chain glucosylceramide by cerezyme (9-methyl-ceramide by LC-MS); assay type: biochemical; details: 4 h; for 9-methyl ceramide: 10 μg fungal GlcCer, 37 °C
Description: as §2

T1 sequence (J9W473 entry or part of it): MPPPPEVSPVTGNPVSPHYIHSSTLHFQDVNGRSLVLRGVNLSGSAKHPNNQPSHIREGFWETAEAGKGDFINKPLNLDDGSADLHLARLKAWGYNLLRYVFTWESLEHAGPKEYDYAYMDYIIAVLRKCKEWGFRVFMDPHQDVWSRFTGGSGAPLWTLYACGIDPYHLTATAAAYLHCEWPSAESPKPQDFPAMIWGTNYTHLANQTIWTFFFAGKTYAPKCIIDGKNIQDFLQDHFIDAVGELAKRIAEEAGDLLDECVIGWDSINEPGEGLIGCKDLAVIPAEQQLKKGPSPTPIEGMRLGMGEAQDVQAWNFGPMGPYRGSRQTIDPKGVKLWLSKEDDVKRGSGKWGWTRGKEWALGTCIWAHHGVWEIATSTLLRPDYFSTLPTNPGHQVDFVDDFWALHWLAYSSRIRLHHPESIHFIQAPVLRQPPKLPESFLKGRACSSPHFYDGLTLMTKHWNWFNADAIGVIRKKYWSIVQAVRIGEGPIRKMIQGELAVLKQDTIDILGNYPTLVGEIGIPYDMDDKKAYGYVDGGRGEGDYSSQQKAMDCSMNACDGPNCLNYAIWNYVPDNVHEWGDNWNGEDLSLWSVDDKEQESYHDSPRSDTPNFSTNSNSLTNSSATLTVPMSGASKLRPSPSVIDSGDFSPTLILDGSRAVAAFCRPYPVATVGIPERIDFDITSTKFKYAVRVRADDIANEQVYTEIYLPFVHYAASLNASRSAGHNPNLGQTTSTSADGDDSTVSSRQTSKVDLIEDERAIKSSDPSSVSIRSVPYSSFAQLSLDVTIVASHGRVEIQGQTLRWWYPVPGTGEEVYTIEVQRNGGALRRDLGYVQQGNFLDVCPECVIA

Cc1[nH]c2ccc(CNc3nccc(N)n3)cc2c1C [Hit 6]
LD50 (lethal dose 50) [1]: 181.3 µM | IC50 (C. neoformans Sgl1 [2]): 2 µM

CCCCCCCCCCCCCCCCC(O)C(=O)NC(COC1OC(CO)C(O)C(O)C1O)C(O)C=CCCC=C(C)CCCCCCCCC (centres unmarked) [fungal glucosylceramide, OH-Δ8,9-methyl-glucosylceramide]
hydrolysis by Sgl1 (C. neoformans Sgl1 [3]): unable to detect hydrolysis

CN1C[C@H](Nc2nc(C(C)(C)C)nc3c2cnn3C)C[C@H]1CO [Hit 14]
LD50 (lethal dose 50) [1]: 357 µM | IC50 (C. neoformans Sgl1 [2]): 1 µM

OC(Cn1cncn1)(Cn1cncn1)c1ccc(F)cc1F [Fluconazole, fluconazole, reference compound]
lung CFU compared to vehicle (C. neoformans H99; 14 days of treatment): significant difference among CFU recovered from the lungs; also recorded: slightly reduced lung CFU | brain dissemination / CFU recovered from the brain (C. neoformans H99; 14 days): did not prevent C. neoformans brain dissemination | Lung (CFU/mL) (C. neoformans H99; day 6 post infection, 10 mg/kg/day each, 10 mg/kg/day): 60000 CFU/mL and 120000 CFU/mL and 92000 CFU/mL

O=c1ccc2nc3ccc(O[C@@H]4O[C@H](CO)[C@@H](O)[C@H](O)[C@H]4O)cc3oc-2c1 [Resorufin 3β-D-glp, resorufin-3β-D-glucopyranoside, reference compound]
Turnover, min-1 (Mean) (C. neoformans Sgl1 [4]; 0.8 µM Resorufin 3β-D-glp): 0.1166 min⁻¹ | Turnover, min-1 (Mean) (C. neoformans Sgl1 [4]; 1.6 µM Resorufin 3β-D-glp): 0.2022 min⁻¹ | Turnover, min-1 (Mean) (C. neoformans Sgl1 [4]; 3.125 µM Resorufin 3β-D-glp): 0.2828 min⁻¹ | Turnover, min-1 (Mean) (C. neoformans Sgl1 [4]; 6.25 µM Resorufin 3β-D-glp): 0.5182 min⁻¹ | Turnover, min-1 (Mean) (C. neoformans Sgl1 [4]; 12.5 µM Resorufin 3β-D-glp): 0.7736 min⁻¹ | Turnover, min-1 (Mean) (C. neoformans Sgl1 [4]; 25 µM Resorufin 3β-D-glp): 1.399 min⁻¹ | Turnover, min-1 (Mean) (C. neoformans Sgl1 [4]; 50 µM Resorufin 3β-D-glp): 2.307 min⁻¹ | Turnover, min-1 (Mean) (C. neoformans Sgl1 [4]; 100 µM Resorufin 3β-D-glp): 3.899 min⁻¹ | Vmax, Michaelis-Menten best-fit value, Turnover (C. neoformans Sgl1 [4]; res-glp as Sgl1 substrate, source data Fig S6i): 9.522 min⁻¹ | Km (C. neoformans Sgl1 [4]; res-glp as Sgl1 substrate, source data Fig S6i, read-out: Km, Michaelis-Menten best-fit value): 147 µM

O=c1ccc2nc3ccc(O)cc3oc-2c1 [resorufin]
Picomol of resorufin produced (C. neoformans Sgl1 [4]; substrate concentration 0.8 µM): 13.6869 Picomol and 10.2624 Picomol and 15.333 Picomol and 8.2899 Picomol and 7.897 Picomol and 8.1513 Picomol and 7.834 Picomol and 9.766 Picomol | Picomol of resorufin produced (C. neoformans Sgl1 [4]; substrate concentration 1.6 µM): 22.652 Picomol and 16.8084 Picomol and 22.0089 Picomol and 13.8077 Picomol and 14.311 Picomol and 13.7411 Picomol and 16.5589 Picomol and 17.8661 Picomol | Picomol of resorufin produced (C. neoformans Sgl1 [4]; substrate concentration 3.125 µM): 38.3651 Picomol and 20.7516 Picomol and 22.1703 Picomol and 24.2149 Picomol and 22.4235 Picomol and 18.9404 Picomol and 21.8512 Picomol and 25.5122 Picomol | Picomol of resorufin produced (C. neoformans Sgl1 [4]; substrate concentration 6.25 µM): 43.9839 Picomol and 34.2216 Picomol and 50.5101 Picomol and 33.7929 Picomol and 44.5629 Picomol and 40.9973 Picomol and 53.26 Picomol and 50.9019 Picomol | Picomol of resorufin produced (C. neoformans Sgl1 [4]; substrate concentration 12.5 µM): 71.213 Picomol and 36.0642 Picomol and 41.6688 Picomol and 71.5524 Picomol and 70.9838 Picomol and 75.8794 Picomol and 76.3919 Picomol and 81.7237 Picomol | Picomol of resorufin produced (C. neoformans Sgl1 [4]; substrate concentration 25 µM): 72.1659 Picomol and 113.232 Picomol and 127.381 Picomol and 122.744 Picomol and 134.032 Picomol and 119.303 Picomol and 123.078 Picomol and 139.365 Picomol | Picomol of resorufin produced (C. neoformans Sgl1 [4]; substrate concentration 50 µM): 180.011 Picomol and 203.084 Picomol and 186.676 Picomol and 209.238 Picomol and 194.059 Picomol and 207.198 Picomol and 188.267 Picomol and 183.529 Picomol | Picomol of resorufin produced (C. neoformans Sgl1 [4]; substrate concentration 100 µM): 305.03 Picomol and 313.72 Picomol and 318.728 Picomol and 338.834 Picomol and 336.378 Picomol and 332.942 Picomol and 323.184 Picomol and 353.074 Picomol

CN1C[C@H](NS(=O)(=O)c2cc(Cl)ccc2Cl)C[C@H]1CO [Hit 13]
LD50 (lethal dose 50) [1]: 217.3 µM | IC50 (C. neoformans Sgl1 [2]): 2 µM

Cc1ccsc1CN(CCN(C)C)Cc1ccc2nonc2c1 [Hit 10]
LD50 (lethal dose 50) [1]: 301.8 µM

B1: Cerezyme: recombinant human glucosylceramidase (Genzyme Corporation) (protein, chains of the INN, looked up)
chain: ARPCIPKSFGYSSVVCVCNATYCDSFDPPTFPALGTFSRYESTRSGRRMELSMGPIQANHTGTGLLLTLQPEQKFQKVKGFGGAMTDAAALNILALSPPAQNLLLKSYFSEEGIGYNIIRVPMASCDFSIRTYTYADTPDDFQLHNFSLPEEDTKLKIPLIHRALQLAQRPVSLLASPWTSPTWLKTNGAVNGKGSLKGQPGDIYHQTWARYFVKFLDAYAEHKLQFWAVTAENEPSAGLLSGYPFQCLGFTPEHQRDFIARDLGPTLANSTHHNVRLLMLDDQRLLLPHWAKVVLTDPEAAKYVHGIAVHWYLDFLAPAKATLGETHRLFPNTMLFASEACVGSKFWEQSVRLGSWDRGMQYSHSIITNLLYHVVGWTDWNLALNPEGGPNWVRNFVDSPIIVDITKDTFYKQPMFYHLGHFSKFIPEGSQRVGLVASQKNDLDAVALMHPDGSAVVVVLNRSSKDVPLTIKDPAVGFLETISPGYSIHTYLWHRQ
9-methyl ceramide ([5]; Cerezyme 10 μg): 221.543 pmol/mL and 250.417 pmol/mL and 226.634 pmol/mL and 267.483 pmol/mL | 9-methyl ceramide ([5]; Cerezyme 50 g (so in the source)): 243.428 pmol/mL and 279.737 pmol/mL and 384.828 pmol/mL and 393.256 pmol/mL | hydrolysis of fungal glucosylceramide ([5]; positive control, pH 5.5, 37 °C): readily hydrolyzed fungal glucosylceramide
